Measurements as given in ChEMBL document CHEMBL1155044, “Elucidation of different binding modes of purine nucleosides to human deoxycytidine kinase” (J Med Chem, 2008).

Experiments:
Homo sapiens [1] = species on record: Homo sapiens
Homo sapiens [2] = species on record: Homo sapiens; remark: listed apart in the source
[3] = system: Nc1nc(O)c2ncn([C@H]3C[C@H](O)[C@@H](CO)O3)c2n1; details: Homo sapiens
[4] = system: Nc1nc(O)c2ncn([C@H]3C[C@H](O)[C@@H](CO)O3)c2n1; details: Homo sapiens; remark: listed apart in the source

Chain of Deoxycytidine kinase (Homo sapiens), P27707 (P27707 whole entry): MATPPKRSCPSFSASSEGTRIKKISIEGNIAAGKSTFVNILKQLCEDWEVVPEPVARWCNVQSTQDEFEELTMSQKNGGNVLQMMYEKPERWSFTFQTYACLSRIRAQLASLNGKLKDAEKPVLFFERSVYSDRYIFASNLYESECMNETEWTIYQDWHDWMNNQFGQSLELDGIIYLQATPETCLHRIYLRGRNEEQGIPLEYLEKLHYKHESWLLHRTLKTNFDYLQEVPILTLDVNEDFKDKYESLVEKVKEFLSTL

Km (Homo sapiens [1]) [µM] | kcat (Homo sapiens [1]) [s⁻¹] | Km (Homo sapiens [2]) [µM] | kcat (Homo sapiens [2]) [s⁻¹] | Compound | Km [3] [µM] | Km [4] [µM] | kcat [4] [s⁻¹]
700 | 3.6 | 10.4 | 0.43 | Nc1nc(O)c2ncn([C@H]3C[C@H](O)[C@@H](CO)O3)c2n1 | – | – | –
– | – | – | – | Deoxycytidine kinase (Homo sapiens), P27707 | 181 | 41 | 0.53
